Data: patent US20100280117A1 (Xanodyne Pharmaceuticals, Inc., priority 2009, published 2010)

Legend:
heavy menstrual bleeding [1] = conditions: open label uncontrolled, 849 patients; cited from earlier work
women with menorrhagia [2] = test: Example VIII double-blind placebo-controlled clinical study, six treated menstrual periods
Description: (§1) This was a multi-center, double-blind, placebo-controlled, parallel-group study.
Menstrual blood loss (MBL) was assessed during the entire menstrual period by the alkaline hematin test (AHT) method. Measures from the Menorrhagia Instrument (FIG. 1) were also administered immediately after each menstrual period under investigation. Subjects reported large stains exceeding the capacity of sanitary protection (and other patient reported outcome [PRO] items) during the menstrual period in daily diaries.
For the Primary Endpoint, the objective reduction in menstrual blood loss (MBL) during the entire menstrual period as assessed by the AHT Method was assessed.
For the Secondary Endpoints, the Limitation in Social Leisure Activities (LSLA) and the Limitation in Physical Activities (LPA) scores from the Menorrhagia Instrument (MI measures #4 and #3, respectively) and the total number of large stains responder analysis during the menstrual period from subject diaries were assessed.
For the Secondary Endpoints, assessment of the following were included, Menstrual Blood Loss (MBL) assessment score (MI measure #1), Limitation in Work Outside or Inside the Home (LWH) score (MI measure #2), and subject assessment of meaningfulness score from the MI (Measure #6) (used for the MBL responder analysis).
(§2) The efficacy results were based on the modified ITT (mITT) populations.

[3] = Randomized single-dose 4-way crossover bioequivalence/bioavailability study, fasting; parameters: species or system human (healthy female volunteers); conditions: female, human, in vivo, iv
women with menorrhagia [4] = test: Example VII double-blind placebo-controlled clinical study, three treated menstrual periods; conditions: for proportion of responders (reduction in MBL and meaningful improvement, MI measure 6c): after first treated cycle, p<0.0001 vs placebo
Description: as §1
The primary objective of the study was to determine the efficacy of a 1.95 gm/day of tranexamic acid (650 mg orally three times daily, TID) and 3.9 gm/day of tranexamic acid (1.3 gm orally three times daily, TID) administered during menstruation for up to 5 days (maximum of 15 doses) to reduce menstrual blood loss in women with objective evidence of heavy menstrual bleeding.
The secondary objective of the study was to determine the improvement with administration of 1.95 gm/day or 3.9 gm/day of tranexamic acid in women with heavy menstrual bleeding in their symptoms including, Limitation in Social Leisure Activities (LSLA) and Limitation in Physical Activities (LPA) scores from the Menorrhagia Instrument Measures (FIG. 1). Further the objective was to determine the safety of the 1.95 gm/day and 3.9 gm/day of the modified release tranexamic acid formulation administered during menstruation.
All periods were evaluated for the secondary endpoints, and for safety of tranexamic acid at an oral dose of 1.3 gm or placebo administered three (3) times daily for up to five consecutive (5) days (maximum of 15 doses) during menstruation.
Menstrual blood loss (MBL) was assessed during the entire menstrual period by the alkaline hematin test (AHT) method. The Menorrhagia Instrument Measures (FIG. 1) were also administered immediately after each menstrual period under investigation. For the Primary Endpoint, the objective reduction in menstrual blood loss (MBL) during the entire menstrual period as assessed by the AHT Method was assessed.
For the Secondary Endpoints, the scores for Limitation in Social Leisure Activities (LSLA) and the scores for Limitation in Physical Activities (LPA) from the Menorrhagia Instrument Measures (MI), measures #4 and #3, respectively) were assessed.
For the Secondary Endpoints the data collected included at least; Menstrual Blood Loss (MBL) assessment score (MI measure 1), Limitation in Work Outside or Inside the Home (LWH) score (MI item 2), and subject assessment of meaningfulness score from the MI (measure 6) (used for the MBL responder analysis).
as §2

heavy menstrual bleeding [5] = conditions: cited from earlier work
[6] = tested on: patients diagnosed with menorrhagia; test: Menorrhagia Instrument (MI) validation sub-study, treatment cohort; format: in vivo, human (women)
Description: The MI was evaluated in a sub population of patients enrolled in a clinical trial designed to assess the safety and efficacy of tranexamic acid at an oral dose of 3.9 g administered daily for up to 5 days during each menstrual period. Two groups of patients were used to assess the MI, one group of patients were those diagnosed with menorrhagia and undergoing treatment. The second group was an age matched normal group. The sub-study was designed: to collect sufficient quantitative data to support the construct-related validation of the MI measures; to collect sufficient quantitative data to support the assessment of meaningful/important change in blood loss to the women; to conduct a test/retest evaluation of the instrument, and to address the reliability of the MI measures.
A total of 262 women completed the MI. […] The MI measures 1-5 were administered at baseline and at the subsequent first and second non-treatment periods for the subjects in the normal cohort The MI measure 6 was administered and data collected, at Month 1 and Month 2. The Ruta Menorrhagia Questionnaire, SF-36 Health Survey and the MI were completed by the subject before visit procedures were performed. A subset of at least 50 subjects were asked to return to the study site 7 to 10 days after the baseline Visit but before the next menstrual period starts to complete the MI a second time.
A total of 177 patients were enrolled into the sub-study. […] The 149 patients remaining were intended to be age matched. The majority of patients in the study were in their late 30's or early 40's. Because of the difficulty of enrolling sufficient numbers of women with normal menstrual periods in this age bracket 18 evaluable patients were not age matched. A total of 131 evaluable patients were age matched. A sub-set of 80 evaluable patients participated in the test/retest segment of the validation. Of these patients 11 were evaluable but not age matched. Data from all 80 patients were used for statistical evaluation of the test/re-test correlations.
The following Measures were summarized and statistically analyzed: • MI measure1—Blood Loss Rating • MI measure 2—Limitation of Work Outside or Inside the Home • MI measure 3—Limitation of Physical Activities • MI measure 4—Limitation of Social or Leisure Activities • MI measure 6/6a/6b—Menstrual Blood Loss During Last Period • MI measure 6c—Meaningfulness of Change in Menstrual Blood Loss
The MI consisted of 4 individual measures (1-4) that were analyzed separately for validation. No summative scale was derived. […] Measures 6, 6a and 6b dealt with menstrual blood loss relative to the previous menstrual period. The answers to the measures in the subparts of measure 6, were combined to produce a 15 point rating scale. The scale values range from −7 to +7 with −7 representing a very great deal worse menstrual blood loss than the previous period, and +7 representing a very great deal better menstrual blood loss than the previous period. The midpoint (0) represents the perception of about the same menstrual blood loss as the previous period.
The ability to detect change required that values for the item or instrument change when the concept it measures changed. In order to measure the MI items ability to detect change, longitudinal data were evaluated focusing primarily on the changes from baseline to month 1. Differences in proportions and comparisons between treatment and normal groups were compared using chi-square statistics (the Stuart-Maxwell test testing marginal homogeneity for all categories simultaneously). […] The Cohen Effect Size was computed by taking the mean change in measure score (baseline to month 1) and dividing that by the standard deviation of mean baseline score.^2 ^2 Cohen, J. J. (1988). Statistical power analysis for the behavioral sciences (p. 8). Erlbaum: Hillsdale, N.J.

[7] = 3.9 g/day compared with placebo
[8] = treatment group, 3.9 g daily, score 1-5, n 126
[9] = treatment group, baseline to month 1
[10] = treatment group, Cohen effect size
[11] = women on treatment who reported a meaningful improvement

NC[C@H]1CC[C@H](C(=O)O)CC1 [tranexamic acid]
women satisfied with the treatment (heavy menstrual bleeding [1]): 80% | LWH (MI measure #2) (women with menorrhagia [2]; [7]): significantly reduced | subjects' assessment of MBL (MI measure #1) (women with menorrhagia [2]; [7]): significantly reduced | mean LPA score, change from baseline (women with menorrhagia [2]; 3.9 g/day, MI measure 3): significant treatment-related reductions | mean LSLA score, change from baseline (women with menorrhagia [2]; 3.9 g/day, MI measure 4): significant treatment-related reductions | proportion of responders (reduction in MBL and meaningful improvement, MI measure #6c) (women with menorrhagia [2]; 3.9 g/day, after first treated cycle, p<0.0001 vs placebo): 65.4% | regression slope of MBL response over six menstrual cycles (women with menorrhagia [2]; 3.9 g/day, p=0.615): −0.90 mL/cycle | clearance [3]: 137 mL/min | half-life [3]: 10.2 h | clinical relevance of mean reduction in menstrual blood loss (criteria: >50 mL; at least 36 mL meaningful) (women with menorrhagia [4]; 1.9 and 3.9 g/day): met both criteria for a clinically meaningful result | proportion of responders (reduction in MBL and meaningful improvement, MI measure 6c) (women with menorrhagia [4]; 1.95 g/day): 58.3% | LWH (MI measure 2) (women with menorrhagia [4]; [7]): significantly reduced | subjects' assessment of MBL (MI item 1) (women with menorrhagia [4]; [7]): significantly reduced | proportion of responders (reduction in MBL and meaningful improvement, MI measure 6c) (women with menorrhagia [4]; 3.9 g/day): 71.0% | mean LPA score, change from baseline (women with menorrhagia [4]; Limitation in Physical Activities, MI measure 3): Significant treatment-related reductions | mean LSLA score, change from baseline (women with menorrhagia [4]; Limitation in Social Leisure Activities, MI measure 4): Significant treatment-related reductions | efficacy in the treatment of HMB (heavy menstrual bleeding [5]; doses of ˜4 g/day (typically 1 g every 6 hours), immediate-release): effective | side effects (heavy menstrual bleeding [5]; doses of ˜4 g/day (typically 1 g every 6 hours)): few side effects | reduction of heavy menstrual bleeding (heavy menstrual bleeding [5]; research from European countries): 40-50% | calculated effect size, range over the four MI items ([6]; treatment group): −0.9 to −1.2 | mean change in response from baseline to month 1, range over the four MI items ([6]; treatment group): −0.76 to −1.16 | MI Item 1 self-perceived blood loss, Month 1 mean ([6]; treatment group, 3.9 g daily oral up to 5 days, score 1-4, n 126): 2.49 | MI Item 2 limit you in your work, Month 1 mean [6, 8]: 2.12 | MI Item 3 limit you in your physical activities, Month 1 mean [6, 8]: 2.13 | MI Item 4 limit you in your social/leisure activities, Month 1 mean [6, 8]: 2.00 | MI Item 1 self-perceived blood loss, mean change [6, 9]: −0.76 | MI Item 2 limit you in your work, mean change [6, 9]: −0.93 | MI Item 3 limit you in your physical activities, mean change [6, 9]: −1.16 | MI Item 4 limit you in your social/leisure activities, mean change [6, 9]: −1.06 | women on treatment who reported a meaningful improvement ([6]; treatment group, month 1, MI measure 6/6c): 78.6% | MI Item 2 limit you in your work, Effect Size [6, 10]: −0.939 | MI Item 3 limit you in your physical activities, Effect Size [6, 10]: −1.221 | MI Item 4 limit you in your social/leisure activities, Effect Size [6, 10]: −1.000 | MI Item 1 self-perceived blood loss, Effect Size ([6]; treatment group, Cohen effect size, mean change / SD of baseline): −1.226 | improvement in MI item 3 (physical activities) [6, 11]: 1.29 | improvement in MI item 4 (social/leisure activities) [6, 11]: 1.17
